Results published in article PMC4490028 (Cancer research, 2015).
Each block holds one molecule with its values, some of them ahead of it.

Columns and labels:
human ABCC2 = human ABCC2 (Homo sapiens, UniProt Q92887); test: In vitro vesicular transport, inside-out Sf9 vesicles expressing human ABCC2
human ABCC4 = target: T1, human ABCC4 (Homo sapiens, UniProt O15439); test: In vitro vesicular transport, inside-out Sf9 vesicles expressing human ABCC4
T1 sequence (O15439 1-1325): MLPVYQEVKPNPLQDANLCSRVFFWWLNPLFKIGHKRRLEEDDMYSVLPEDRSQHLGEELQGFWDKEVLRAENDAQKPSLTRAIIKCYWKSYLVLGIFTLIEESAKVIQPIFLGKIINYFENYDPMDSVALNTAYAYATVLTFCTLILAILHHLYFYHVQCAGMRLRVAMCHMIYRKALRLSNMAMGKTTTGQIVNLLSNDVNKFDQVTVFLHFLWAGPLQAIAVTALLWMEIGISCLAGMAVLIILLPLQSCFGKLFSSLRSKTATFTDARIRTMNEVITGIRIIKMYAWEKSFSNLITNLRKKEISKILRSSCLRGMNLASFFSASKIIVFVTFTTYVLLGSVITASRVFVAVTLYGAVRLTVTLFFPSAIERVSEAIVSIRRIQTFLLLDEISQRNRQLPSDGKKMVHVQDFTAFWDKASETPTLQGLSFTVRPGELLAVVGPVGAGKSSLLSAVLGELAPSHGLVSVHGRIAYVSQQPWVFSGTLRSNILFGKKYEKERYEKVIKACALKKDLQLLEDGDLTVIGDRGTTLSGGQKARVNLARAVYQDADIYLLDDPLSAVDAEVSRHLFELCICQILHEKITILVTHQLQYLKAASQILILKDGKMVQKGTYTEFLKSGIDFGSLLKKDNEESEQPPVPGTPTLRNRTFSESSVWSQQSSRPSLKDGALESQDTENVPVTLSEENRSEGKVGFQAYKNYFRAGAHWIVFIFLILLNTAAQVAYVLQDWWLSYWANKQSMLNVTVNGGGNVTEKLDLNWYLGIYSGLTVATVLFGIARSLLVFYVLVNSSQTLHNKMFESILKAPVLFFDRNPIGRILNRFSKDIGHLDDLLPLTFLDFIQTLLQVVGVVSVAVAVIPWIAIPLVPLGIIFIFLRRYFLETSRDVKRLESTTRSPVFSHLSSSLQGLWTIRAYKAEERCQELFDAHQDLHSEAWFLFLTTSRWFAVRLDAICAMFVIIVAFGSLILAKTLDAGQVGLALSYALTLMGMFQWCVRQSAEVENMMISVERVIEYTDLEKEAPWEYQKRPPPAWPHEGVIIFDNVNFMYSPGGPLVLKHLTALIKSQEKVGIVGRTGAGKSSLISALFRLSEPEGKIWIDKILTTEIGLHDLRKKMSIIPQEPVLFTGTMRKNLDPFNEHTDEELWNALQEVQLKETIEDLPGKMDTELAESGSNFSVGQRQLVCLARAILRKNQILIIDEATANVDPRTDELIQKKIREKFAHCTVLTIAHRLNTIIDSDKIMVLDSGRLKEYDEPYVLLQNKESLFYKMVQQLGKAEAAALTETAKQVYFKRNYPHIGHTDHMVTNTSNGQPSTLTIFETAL

human ABCC3 = human ABCC3 (Homo sapiens, UniProt O15438); test: In vitro vesicular transport, inside-out Sf9 vesicles expressing human ABCC3; format: in vitro ADME
Sequence of human ABCC3 (O15438 whole entry): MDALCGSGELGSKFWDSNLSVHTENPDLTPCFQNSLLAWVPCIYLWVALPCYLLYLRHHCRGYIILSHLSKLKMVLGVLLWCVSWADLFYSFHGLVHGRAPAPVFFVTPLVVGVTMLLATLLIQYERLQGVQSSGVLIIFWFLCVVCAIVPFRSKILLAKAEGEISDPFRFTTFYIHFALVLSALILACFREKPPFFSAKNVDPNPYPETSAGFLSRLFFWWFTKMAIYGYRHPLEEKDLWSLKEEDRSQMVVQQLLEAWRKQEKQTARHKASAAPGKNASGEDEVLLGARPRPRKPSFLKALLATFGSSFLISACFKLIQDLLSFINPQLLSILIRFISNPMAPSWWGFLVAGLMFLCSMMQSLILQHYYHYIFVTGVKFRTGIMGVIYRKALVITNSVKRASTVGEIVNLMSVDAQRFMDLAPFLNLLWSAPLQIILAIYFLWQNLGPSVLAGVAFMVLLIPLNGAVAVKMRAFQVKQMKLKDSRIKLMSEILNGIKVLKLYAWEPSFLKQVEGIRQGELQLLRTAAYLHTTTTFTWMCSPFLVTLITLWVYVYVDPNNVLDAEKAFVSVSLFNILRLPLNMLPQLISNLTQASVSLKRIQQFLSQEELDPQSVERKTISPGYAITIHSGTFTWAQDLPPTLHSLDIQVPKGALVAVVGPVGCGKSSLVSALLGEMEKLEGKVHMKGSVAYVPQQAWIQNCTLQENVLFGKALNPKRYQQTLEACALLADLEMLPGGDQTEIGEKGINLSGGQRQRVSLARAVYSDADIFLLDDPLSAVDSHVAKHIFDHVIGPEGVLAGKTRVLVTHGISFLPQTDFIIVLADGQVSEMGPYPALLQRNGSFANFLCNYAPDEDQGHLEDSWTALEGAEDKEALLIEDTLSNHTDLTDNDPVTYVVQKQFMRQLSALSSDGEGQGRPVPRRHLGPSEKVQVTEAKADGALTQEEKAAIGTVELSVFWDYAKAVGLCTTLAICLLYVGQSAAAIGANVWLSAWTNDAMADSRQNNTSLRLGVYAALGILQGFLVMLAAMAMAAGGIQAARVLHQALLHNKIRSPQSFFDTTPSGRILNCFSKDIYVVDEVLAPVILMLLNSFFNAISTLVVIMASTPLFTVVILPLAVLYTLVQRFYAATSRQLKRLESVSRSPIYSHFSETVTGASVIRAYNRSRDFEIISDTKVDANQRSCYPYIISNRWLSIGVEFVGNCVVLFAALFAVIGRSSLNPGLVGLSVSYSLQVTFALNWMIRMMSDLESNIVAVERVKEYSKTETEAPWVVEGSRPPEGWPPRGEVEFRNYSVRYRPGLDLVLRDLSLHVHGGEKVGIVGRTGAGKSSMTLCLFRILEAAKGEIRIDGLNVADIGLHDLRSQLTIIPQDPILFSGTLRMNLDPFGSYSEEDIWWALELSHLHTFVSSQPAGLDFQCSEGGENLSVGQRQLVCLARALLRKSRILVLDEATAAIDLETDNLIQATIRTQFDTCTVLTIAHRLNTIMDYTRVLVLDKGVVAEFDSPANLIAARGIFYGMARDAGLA

Abcc2 [1] = test: Pharmacokinetics; conditions: after oral sorafenib 10 mg/kg
rat Abcc2 = rat Abcc2 (Rattus norvegicus, UniProt Q63120); test: In vitro vesicular transport, inside-out Sf9 vesicles expressing rat Abcc2; conditions: 5-min incubation, ATP 4 mM
Sequence of rat Abcc2 (Q63120 whole entry): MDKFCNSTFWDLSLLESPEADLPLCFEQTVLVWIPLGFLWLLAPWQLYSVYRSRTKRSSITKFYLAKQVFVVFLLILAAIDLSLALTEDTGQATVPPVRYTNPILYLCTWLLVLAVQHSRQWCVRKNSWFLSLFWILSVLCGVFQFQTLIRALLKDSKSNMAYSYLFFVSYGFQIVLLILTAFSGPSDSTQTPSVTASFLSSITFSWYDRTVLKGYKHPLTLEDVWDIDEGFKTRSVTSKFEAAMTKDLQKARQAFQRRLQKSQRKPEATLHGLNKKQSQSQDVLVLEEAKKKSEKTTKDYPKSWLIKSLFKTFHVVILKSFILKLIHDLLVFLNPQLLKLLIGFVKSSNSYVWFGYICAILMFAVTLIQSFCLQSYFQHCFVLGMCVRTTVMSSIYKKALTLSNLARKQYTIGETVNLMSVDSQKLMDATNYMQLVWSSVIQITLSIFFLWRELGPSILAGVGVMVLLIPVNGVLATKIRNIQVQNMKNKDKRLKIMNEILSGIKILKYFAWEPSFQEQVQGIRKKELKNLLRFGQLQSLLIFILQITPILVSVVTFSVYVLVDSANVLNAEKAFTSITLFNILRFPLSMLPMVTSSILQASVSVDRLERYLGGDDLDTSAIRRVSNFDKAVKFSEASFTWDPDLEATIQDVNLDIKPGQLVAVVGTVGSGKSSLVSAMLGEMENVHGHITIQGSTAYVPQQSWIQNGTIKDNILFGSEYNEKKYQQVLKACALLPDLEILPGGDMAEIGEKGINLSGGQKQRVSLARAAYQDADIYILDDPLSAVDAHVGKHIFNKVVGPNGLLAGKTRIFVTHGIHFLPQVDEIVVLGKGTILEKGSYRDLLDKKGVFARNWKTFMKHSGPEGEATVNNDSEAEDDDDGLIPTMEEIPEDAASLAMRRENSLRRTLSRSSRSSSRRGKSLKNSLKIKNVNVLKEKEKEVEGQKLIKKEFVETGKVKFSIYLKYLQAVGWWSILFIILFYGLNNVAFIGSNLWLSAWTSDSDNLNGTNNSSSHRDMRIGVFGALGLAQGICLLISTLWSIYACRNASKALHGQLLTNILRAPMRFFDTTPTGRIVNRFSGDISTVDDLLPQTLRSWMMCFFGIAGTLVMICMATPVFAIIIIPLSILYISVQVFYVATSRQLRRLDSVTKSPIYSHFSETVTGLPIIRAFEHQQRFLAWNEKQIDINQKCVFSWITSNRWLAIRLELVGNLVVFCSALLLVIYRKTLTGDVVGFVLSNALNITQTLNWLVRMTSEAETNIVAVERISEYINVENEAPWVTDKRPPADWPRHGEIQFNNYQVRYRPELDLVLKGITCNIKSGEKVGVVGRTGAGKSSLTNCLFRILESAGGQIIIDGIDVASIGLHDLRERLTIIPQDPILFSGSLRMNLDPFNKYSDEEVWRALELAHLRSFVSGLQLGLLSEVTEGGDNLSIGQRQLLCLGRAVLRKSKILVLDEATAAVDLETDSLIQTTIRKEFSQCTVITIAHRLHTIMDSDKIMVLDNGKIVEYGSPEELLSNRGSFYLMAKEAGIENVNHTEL

[2] = cited from earlier work
[3] = format: in vivo, mouse; conditions: oral SG 10 mg/kg
Oatp1a/1b;Abcc3 = test: Plasma and liver pharmacokinetics after oral sorafenib in Oatp1a/1b; format: in vivo, mouse; conditions: oral sorafenib 10 mg/kg; Oatp1a/1b;Abcc3(−/−) mice
Abcc3 = test: Plasma and liver pharmacokinetics after oral sorafenib in Abcc3; format: in vivo, mouse; conditions: oral sorafenib 10 mg/kg; Abcc3(−/−) mice
Oatp1a/1b;Abcc2 = conditions: oral sorafenib 10 mg/kg; Oatp1a/1b;Abcc2(−/−) mice
Abcc2 [4] = test: Pharmacokinetics
[5] = Sorafenib plasma concentrations in FVB wildtype mice after oral sorafenib; conditions: sorafenib 10 mg/kg oral
Oatp1a/1b = test: Plasma and liver pharmacokinetics after oral sorafenib in Oatp1a/1b; format: in vivo, mouse; conditions: oral sorafenib 10 mg/kg; Oatp1a/1b(−/−) mice
[6] = system: mouse intestinal β-glucuronidases; test: Ex vivo cecal incubations of SG; format: in vitro ADME; conditions: SG 2 µM, 6-hour period
Oatp1a/1b;Abcc2;Abcc3 = conditions: oral sorafenib 10 mg/kg; Oatp1a/1b;Abcc2;Abcc3(−/−) mice
Abcc4 = test: Plasma and liver pharmacokinetics after oral sorafenib in Abcc4; conditions: after oral sorafenib 10 mg/kg; Abcc4(−/−) mice
mouse Abcc2 = mouse Abcc2 (Mus musculus, UniProt Q8VI47); test: In vitro vesicular transport, inside-out Sf9 vesicles expressing mouse Abcc2; conditions: SG 10 µM, 5-min incubation, ATP 4 mM
Abcc3;Abcc4 = test: Plasma and liver pharmacokinetics after oral sorafenib in Abcc3; conditions: after oral sorafenib 10 mg/kg; Abcc3;Abcc4(−/−) mice
[7] = rifampin 100 µM, SG 10 µM, 5 min
[8] = SG 10 µM, 5-min incubation, ATP 4 mM
[9] = increasing SG concentrations, 5 min, ATP 4 mM
[10] = read-out: Km of SG transport, increasing SG concentrations, 5 min, ATP 4 mM

Sequence of human ABCC2 (Q92887 whole entry): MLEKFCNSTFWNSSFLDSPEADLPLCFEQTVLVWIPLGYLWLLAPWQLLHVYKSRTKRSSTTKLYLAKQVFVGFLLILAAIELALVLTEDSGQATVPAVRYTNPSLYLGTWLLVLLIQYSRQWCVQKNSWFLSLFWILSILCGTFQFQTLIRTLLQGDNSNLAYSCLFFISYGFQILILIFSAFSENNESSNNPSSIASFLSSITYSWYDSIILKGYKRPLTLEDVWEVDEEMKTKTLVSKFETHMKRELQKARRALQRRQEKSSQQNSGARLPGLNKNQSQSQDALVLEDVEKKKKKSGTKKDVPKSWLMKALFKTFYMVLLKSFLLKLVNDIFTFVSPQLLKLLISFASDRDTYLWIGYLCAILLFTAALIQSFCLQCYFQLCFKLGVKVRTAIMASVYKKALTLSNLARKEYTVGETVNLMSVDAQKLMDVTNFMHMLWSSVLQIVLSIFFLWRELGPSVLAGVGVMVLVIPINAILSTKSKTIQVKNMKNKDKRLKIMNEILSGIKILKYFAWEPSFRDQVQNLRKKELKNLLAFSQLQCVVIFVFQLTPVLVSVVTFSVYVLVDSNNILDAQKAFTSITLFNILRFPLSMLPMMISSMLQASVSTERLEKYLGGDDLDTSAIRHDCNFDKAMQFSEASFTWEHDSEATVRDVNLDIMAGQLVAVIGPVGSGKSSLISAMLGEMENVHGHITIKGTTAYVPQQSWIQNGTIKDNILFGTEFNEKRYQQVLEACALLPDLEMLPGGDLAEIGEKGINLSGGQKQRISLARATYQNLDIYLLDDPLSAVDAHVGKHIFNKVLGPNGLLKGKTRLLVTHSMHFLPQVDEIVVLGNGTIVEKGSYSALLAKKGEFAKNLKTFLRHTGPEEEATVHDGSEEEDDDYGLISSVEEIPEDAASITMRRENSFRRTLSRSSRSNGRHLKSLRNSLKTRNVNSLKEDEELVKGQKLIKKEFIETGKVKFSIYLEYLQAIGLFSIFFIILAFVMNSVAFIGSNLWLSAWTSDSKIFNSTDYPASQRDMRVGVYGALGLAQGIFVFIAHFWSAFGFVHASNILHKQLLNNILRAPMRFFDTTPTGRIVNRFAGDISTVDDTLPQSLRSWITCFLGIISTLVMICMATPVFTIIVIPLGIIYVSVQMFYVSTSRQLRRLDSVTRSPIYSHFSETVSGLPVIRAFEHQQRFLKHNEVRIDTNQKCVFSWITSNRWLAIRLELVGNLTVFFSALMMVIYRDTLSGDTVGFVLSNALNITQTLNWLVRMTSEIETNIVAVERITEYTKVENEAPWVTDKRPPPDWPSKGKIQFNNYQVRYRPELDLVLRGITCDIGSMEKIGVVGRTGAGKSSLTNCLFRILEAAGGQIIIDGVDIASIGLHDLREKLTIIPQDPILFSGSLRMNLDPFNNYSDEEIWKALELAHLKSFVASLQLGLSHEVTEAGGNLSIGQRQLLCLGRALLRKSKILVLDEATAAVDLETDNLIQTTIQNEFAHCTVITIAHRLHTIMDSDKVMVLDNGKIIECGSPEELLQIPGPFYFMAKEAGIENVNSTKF

inhibition of ABCC2-mediated SG uptake (human ABCC2; [7]): sensitive to inhibition | inhibition of ABCC4-mediated SG uptake (human ABCC4; [7]): sensitive to inhibition | inhibition of ABCC3-mediated SG uptake (human ABCC3; [7]): sensitive to inhibition
Molecule: CO[C@H]1/C=C/O[C@@]2(C)Oc3c(C)c(O)c4c(O)c(c(/C=N/N5CCN(C)CC5)c(O)c4c3C2=O)NC(=O)/C(C)=C\C=C\[C@H](C)[C@H](O)[C@@H](C)[C@@H](O)[C@@H](C)[C@H](OC(C)=O)[C@@H]1C [rifampin]

Molecule: CNC(=O)c1cc(Oc2ccc(NC(=O)Nc3ccc(Cl)c(C(F)(F)F)c3)cc2)cc[n+]1[O-] [sorafenib-N-oxide]
increase in plasma levels in Abcc2(−/−) versus wildtype rats (Abcc2 [1]): ~ 2 fold

transport of sorafenib (rat Abcc2; sorafenib 10 µM): weakly | sorafenib uptake relative to control vesicles (human ABCC2; sorafenib 10 µM, 5-min incubation, ATP 4 mM): moderately increased | time until sorafenib was detected in plasma after SG administration ([3]; initial study): 8 h | sorafenib peak levels in plasma of vehicle-pretreated mice ([3]; at 8 hours after SG administration): 226 to 897 ng/mL | sorafenib levels in plasma of neomycin-pretreated mice ([3]; neomycin 200 mg/kg twice daily for 5 days, 8 to 24 hours): below the limit of quantification | time of sorafenib peak levels after SG administration ([3]; vehicle-pretreated mice): 8 h | increase in plasma levels in Abcc2(−/−) versus wildtype rats (Abcc2 [1]): ~ 2 fold | liver levels of sorafenib versus wildtype (Oatp1a/1b;Abcc3): similar | plasma levels of sorafenib versus wildtype (Oatp1a/1b;Abcc3): not substantially altered | liver levels of sorafenib versus wildtype (Abcc3): similar | plasma levels of sorafenib versus wildtype (Abcc3): not substantially altered | plasma and liver levels of sorafenib (Oatp1a/1b;Abcc2): not substantially altered | biliary output of sorafenib, Abcc2(−/−) compared to wildtype mice (Abcc2 [4]; oral sorafenib 10 mg/kg): not associated with altered | liver uptake of sorafenib, Abcc2(−/−) compared to wildtype mice (Abcc2 [4]; oral sorafenib 10 mg/kg): not associated with altered | plasma disposition of sorafenib, Abcc2(−/−) compared to wildtype mice (Abcc2 [4]; oral sorafenib 10 mg/kg): not associated with altered | sorafenib plasma steady-state concentrations [5]: 6 to 10 µM | liver levels of sorafenib versus wildtype (Oatp1a/1b): similar | plasma levels of sorafenib versus wildtype (Oatp1a/1b): not substantially altered | plasma sorafenib exposure, lower than wildtype (Oatp1a/1b): ~ 25% | sorafenib levels formed from SG in crude suspension of cecal content [6]: corresponding increase | plasma and liver levels of sorafenib (Oatp1a/1b;Abcc2;Abcc3): not substantially altered
Molecule: CNC(=O)c1cc(Oc2ccc(NC(=O)Nc3ccc(Cl)c(C(F)(F)F)c3)cc2)ccn1 [sorafenib]
average sorafenib plasma steady-state concentrations ([2]; adults and children treated at 400 mg or 200 mg/m^2 twice daily): 10 µM | decrease of systemic exposure to sorafenib by neomycin treatment ([2]; neomycin treatment in humans): more than 50%

Molecule: sorafenib-glucuronide [SG]
uptake of SG relative to control vesicles (rat Abcc2; SG 10 µM): efficiently increased | concentrations of SG in plasma and liver, effect of Abcc4 deficiency (Abcc4): not substantially affected | uptake of SG relative to control vesicles (human ABCC2; [8]): efficiently increased | maximal velocity (Vmax) of SG transport (human ABCC2; [9]): 155 ± 11 pmol/min/mg | uptake of SG relative to control vesicles (mouse Abcc2): efficiently increased | SG in bile of wildtype or Abcc2(−/−) rats (Abcc2 [1]): not detected | SG in plasma of wildtype or Abcc2(−/−) rats (Abcc2 [1]): not detected | SG liver-to-plasma ratio in Abcc2(−/−) versus wildtype mice (Abcc2 [4]; after oral sorafenib 10 mg/kg): decreased | increase in SG liver concentrations in Abcc2(−/−) versus wildtype mice (Abcc2 [4]; after oral sorafenib 10 mg/kg): ~ 3 fold | increase of plasma levels of SG in Abcc2(−/−) versus wildtype mice (Abcc2 [4]; after oral sorafenib 10 mg/kg): ~ 350 fold | reduction of biliary output of SG in Abcc2(−/−) versus wildtype mice (Abcc2 [4]; after oral sorafenib 10 mg/kg, bile collected for 2 hours): ~ 12 fold | urinary excretion (Abcc2 [4]; after oral sorafenib 10 mg/kg, irrespective of Abcc2 status): minor route of elimination | uptake of SG relative to control vesicles (human ABCC4; [8]): efficiently increased | transport efficiency, lower than that observed for ABCC2 (human ABCC4; SG transport): about 7 fold | Vmax of SG transport (human ABCC4; [9]): 221 ± 11 pmol/min/mg | Km (human ABCC4; [10]): 146 ± 14 µM | uptake of SG relative to control vesicles (human ABCC3; [8]): efficiently increased | transport efficiency, lower than that observed for ABCC2 (human ABCC3; SG transport): about 7 fold | Vmax of SG transport (human ABCC3; [9]): 196 ± 44 pmol/min/mg | Km (human ABCC3; [10]): 186 ± 72 µM | concentrations of SG in plasma and liver, effect of Abcc4 deficiency (Abcc3;Abcc4): not substantially affected
